The target in one experiment is CDK2/Cyclin E1 (Homo sapiens (Human), UniProt P24941). Description: biochemical. The note with it: CDK2_Ki (nM), phosphorylated CDK2/Cyclin E1, 150 μM ATP, Morrison tight-binding fit.
A further experiment concerns the target CDK6/Cyclin D1 (Homo sapiens (Human), UniProt Q00534). The experiment in a line: biochemical. To be noted: CDK6_Ki (nM), non-phosphorylated CDK6/Cyclin D1, 2 mM ATP, Morrison fit.

CDK6/Cyclin D1, sequence (Q00534 whole entry): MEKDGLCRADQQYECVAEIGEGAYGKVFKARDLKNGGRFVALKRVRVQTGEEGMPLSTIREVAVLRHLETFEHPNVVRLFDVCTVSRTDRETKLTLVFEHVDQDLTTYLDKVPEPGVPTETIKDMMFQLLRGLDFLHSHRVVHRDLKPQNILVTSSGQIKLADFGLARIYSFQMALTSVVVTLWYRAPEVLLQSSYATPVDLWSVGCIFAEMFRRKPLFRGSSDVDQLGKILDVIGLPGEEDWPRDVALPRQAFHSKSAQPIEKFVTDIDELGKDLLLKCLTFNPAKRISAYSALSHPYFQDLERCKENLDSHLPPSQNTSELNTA
CDK6/Cyclin D1, sequence (P24385 whole entry partner): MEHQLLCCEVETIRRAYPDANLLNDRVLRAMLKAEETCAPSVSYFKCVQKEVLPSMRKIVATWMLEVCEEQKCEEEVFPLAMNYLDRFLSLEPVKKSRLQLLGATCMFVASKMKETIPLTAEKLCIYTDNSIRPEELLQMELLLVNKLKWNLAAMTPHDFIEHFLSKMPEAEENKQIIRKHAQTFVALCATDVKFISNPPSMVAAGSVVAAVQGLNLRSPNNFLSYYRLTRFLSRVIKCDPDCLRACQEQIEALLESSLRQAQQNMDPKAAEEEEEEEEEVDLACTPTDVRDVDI
Method for CDK2/Cyclin E1: The assay was initiated with the addition of ATP, following a fifteen minutes pre-incubation of enzyme and inhibitor at room temperature in the reaction mixture. The reaction was stopped after 45 minutes at room temperature by the addition of 50 μL of 80 mM EDTA, pH 7.5.

Regarding `CCS(=O)(=O)N1CCC(Nc2ncc3ccc(=O)n([C@H]4CCC[C@]4(C)O)c3n2)CC1` (single isomer, unassigned) [Example 77, (+)-2-{[1-(ethylsulfonyl)piperidin-4-yl]amino}-8-[(1R*,2R*)-2-hydroxy-2-methylcyclopentyl]pyrido[2,3-d]pyrimidin-7(8H)-one], the figures for the Ki at CDK2/Cyclin E1 and on CDK6/Cyclin D1 were 4.07 nM and 6.6 nM, respectively.

`C[C@@]1(O)CCC[C@H]1n1c(=O)ccc2cnc(NC3CCN(S(=O)(=O)c4nccs4)CC3)nc21` (single isomer, unassigned) [Example 78, (−)-8-[(1R*,2R*)-2-hydroxy-2-methylcyclopentyl]-2-{[1-(1,3-thiazol-2-ylsulfonyl)piperidin-4-yl]amino}pyrido[2,3-d]pyrimidin-7(8H)-one]: the Ki at CDK2/Cyclin E1 was found to be 0.25 nM; at CDK6/Cyclin D1, 1.63 nM.

As for `C[C@]1(O)CCC[C@@H]1n1c(=O)ccc2cnc(NC3CCN(S(=O)(=O)c4nccs4)CC3)nc21` (single isomer, unassigned) [Example 79, (+)-8-[(1R*,2R*)-2-hydroxy-2-methylcyclopentyl]-2-{[1-(1,3-thiazol-2-ylsulfonyl)piperidin-4-yl]amino}pyrido[2,3-d]pyrimidin-7(8H)-one], the Ki was determined as 7.32 nM at CDK2/Cyclin E1 and 9.59 nM at CDK6/Cyclin D1.

In the case of `C[C@@]1(O)CCC[C@H]1n1c(=O)ccc2cnc(NC3CCN(S(=O)(=O)c4nncs4)CC3)nc21` (single isomer, unassigned) [Example 80, (−)-8-[(1R*,2R*)-2-hydroxy-2-methylcyclopentyl]-2-{[1-(1,3,4-thiadiazol-2-ylsulfonyl)piperidin-4-yl]amino}pyrido[2,3-d]pyrimidin-7(8H)-one], the results for the inhibition constant Ki on CDK2/Cyclin E1 and on CDK6/Cyclin D1 were 0.25 nM and 1.53 nM, respectively.

`C[C@]1(O)CCC[C@@H]1n1c(=O)ccc2cnc(NC3CCN(S(=O)(=O)c4nncs4)CC3)nc21` (single isomer, unassigned) [Example 81, (+)-8-[(1R*,2R*)-2-hydroxy-2-methylcyclopentyl]-2-{[1-(1,3,4-thiadiazol-2-ylsulfonyl)piperidin-4-yl]amino}pyrido[2,3-d]pyrimidin-7(8H)-one]: the figures for the Ki on CDK2/Cyclin E1 and at CDK6/Cyclin D1 were 7.03 nM and 6.24 nM, respectively.

Consider `Cn1cc(S(=O)(=O)N2CCC(Nc3ncc4ccc(=O)n([C@@H]5CCC[C@@]5(C)O)c4n3)CC2)cn1` (single isomer, unassigned) [Example 82, (−)-8-[(1R*,2R*)-2-hydroxy-2-methylcyclopentyl]-2-({1-[(1-methyl-1H-pyrazol-4-yl)sulfonyl]piperidin-4-yl}amino)pyrido[2,3-d]pyrimidin-7(8H)-one], for which the Ki amounted to 0.1 nM at CDK2/Cyclin E1 and 1.21 nM at CDK6/Cyclin D1.

With `Cn1cc(S(=O)(=O)N2CCC(Nc3ncc4ccc(=O)n([C@H]5CCC[C@]5(C)O)c4n3)CC2)cn1` (single isomer, unassigned) [Example 83, (+)-8-[(1R*,2R*)-2-hydroxy-2-methylcyclopentyl]-2-({1-[(1-methyl-1H-pyrazol-4-yl)sulfonyl]piperidin-4-yl}amino)pyrido[2,3-d]pyrimidin-7(8H)-one], the Ki at CDK2/Cyclin E1 was 1.98 nM; on CDK6/Cyclin D1, 9.77 nM.

`Cn1cnc(S(=O)(=O)N2CCC(Nc3ncc4ccc(=O)n([C@@H]5CCC[C@@]5(C)O)c4n3)CC2)c1` (single isomer, unassigned) [Example 84, (−)-8-[(1R*,2R*)-2-hydroxy-2-methylcyclopentyl]-2-({1-[(1-methyl-1H-imidazol-4-yl)sulfonyl]piperidin-4-yl}amino)pyrido[2,3-d]pyrimidin-7(8H)-one]: the inhibition constant Ki on CDK2/Cyclin E1 came out at 0.08 nM; at CDK6/Cyclin D1, 0.92 nM.

As to `Cn1cnc(S(=O)(=O)N2CCC(Nc3ncc4ccc(=O)n([C@H]5CCC[C@]5(C)O)c4n3)CC2)c1` (single isomer, unassigned) [Example 85, (+)-8-[(1R*,2R*)-2-hydroxy-2-methylcyclopentyl]-2-({1-[(1-methyl-1H-imidazol-4-yl)sulfonyl]piperidin-4-yl}amino)pyrido[2,3-d]pyrimidin-7(8H)-one], the Ki was determined as 1.98 nM at CDK2/Cyclin E1 and 8.29 nM at CDK6/Cyclin D1.

Regarding `C[C@@]1(O)CCC[C@H]1n1c(=O)ccc2cnc(NC3CCN(S(=O)(=O)CC(F)(F)F)CC3)nc21` (single isomer, unassigned) [Example 86, (−)-8-[(1R*,2R*)-2-hydroxy-2-methylcyclopentyl]-2-({1-[(2,2,2-trifluoroethyl)sulfonyl]piperidin-4-yl}amino)pyrido[2,3-d]pyrimidin-7(8H)-one], the Ki on CDK2/Cyclin E1 amounted to 0.45 nM; at CDK6/Cyclin D1 it was 1.6 nM.

For the compound `C[C@]1(O)CCC[C@@H]1n1c(=O)ccc2cnc(NC3CCN(S(=O)(=O)CC(F)(F)F)CC3)nc21` (single isomer, unassigned) [Example 87, (+)-8-[(1R*,2R*)-2-hydroxy-2-methylcyclopentyl]-2-({1-[(2,2,2-trifluoroethyl)sulfonyl]piperidin-4-yl}amino)pyrido[2,3-d]pyrimidin-7(8H)-one], the results for the Ki at CDK2/Cyclin E1 and on CDK6/Cyclin D1 were 4.38 nM and 8.23 nM, respectively.

For `C[C@@]1(O)CCC[C@H]1n1c(=O)ccc2cnc(NC3CCN(S(=O)(=O)C(F)(F)F)CC3)nc21` (single isomer, unassigned) [Example 88, (−)-8-[(1R*,2R*)-2-hydroxy-2-methylcyclopentyl]-2-({1-[(trifluoromethyl)sulfonyl]piperidin-4-yl}amino)pyrido[2,3-d]pyrimidin-7(8H)-one], the Ki on CDK2/Cyclin E1 was found to be 1.34 nM; on CDK6/Cyclin D1 it was 1.99 nM.

As for `C[C@@]1(O)CCC[C@H]1n1c(=O)ccc2cnc(NC3CCN(S(=O)(=O)CC4CC4)CC3)nc21` (single isomer, unassigned) [Example 90, (−)-2-({1-[(cyclopropylmethyl)sulfonyl]piperidin-4-yl}amino)-8-[(1R*,2R*)-2-hydroxy-2-methylcyclopentyl]pyrido[2,3-d]pyrimidin-7(8H)-one], the Ki on CDK2/Cyclin E1 was 0.25 nM; at CDK6/Cyclin D1 it was 0.88 nM.

As for `C[C@]1(O)CCC[C@@H]1n1c(=O)ccc2cnc(NC3CCN(S(=O)(=O)CC4CC4)CC3)nc21` (single isomer, unassigned) [Example 91, (+)-2-({1-[(cyclopropylmethyl)sulfonyl]piperidin-4-yl}amino)-8-[(1R*,2R*)-2-hydroxy-2-methylcyclopentyl]pyrido[2,3-d]pyrimidin-7(8H)-one], the Ki is 3.01 nM at CDK2/Cyclin E1 and 2.72 nM at CDK6/Cyclin D1.

Regarding `CNS(=O)(=O)N1CCC(Nc2ncc3cc(C)c(=O)n([C@@H]4CCC[C@@]4(C)O)c3n2)CC1` (single isomer, unassigned) [Example 94, (−)-4-({8-[(1R*,2R*)-2-hydroxy-2-methylcyclopentyl]-6-methyl-7-oxo-7,8-dihydropyrido[2,3-d]pyrimidin-2-yl}amino)-N-methylpiperidine-1-sulfonamide], the results for the Ki at CDK2/Cyclin E1 and on CDK6/Cyclin D1 were 0.09 nM and 0.33 nM, respectively.

For the compound `Cc1cc2cnc(NC3CCN(S(=O)(=O)NC4CCOCC4)CC3)nc2n([C@@H]2CCC[C@@]2(C)O)c1=O` (single isomer, unassigned) [Example 96, (−)-4-({8-[(1R*,2R*)-2-hydroxy-2-methylcyclopentyl]-6-methyl-7-oxo-7,8-dihydropyrido[2,3-d]pyrimidin-2-yl}amino)-N-(tetrahydro-2H-pyran-4-yl)piperidine-1-sulfonamide], the Ki on CDK2/Cyclin E1 worked out at 0.24 nM; on CDK6/Cyclin D1, 1.06 nM.

Consider `Cc1cc2cnc(NC3CCN(S(=O)(=O)NC4CCOCC4)CC3)nc2n([C@H]2CCC[C@]2(C)O)c1=O` (single isomer, unassigned) [Example 97, (+)-4-({8-[(1R*,2R*)-2-hydroxy-2-methylcyclopentyl]-6-methyl-7-oxo-7,8-dihydropyrido[2,3-d]pyrimidin-2-yl}amino)-N-(tetrahydro-2H-pyran-4-yl)piperidine-1-sulfonamide], for which the Ki at CDK2/Cyclin E1 amounted to 2.47 nM; on CDK6/Cyclin D1 it was 11.8 nM.

Take `COC(C)(C)CNS(=O)(=O)N1CCC(Nc2ncc3cc(C)c(=O)n([C@@H]4CCC[C@@]4(C)O)c3n2)CC1` (single isomer, unassigned) [Example 98, (−)-4-({8-[(1R*,2R*)-2-hydroxy-2-methylcyclopentyl]-6-methyl-7-oxo-7,8-dihydropyrido[2,3-d]pyrimidin-2-yl}amino)-N-(2-methoxy-2-methylpropyl)piperidine-1-sulfonamide]: the Ki at CDK2/Cyclin E1 came out at 0.33 nM; at CDK6/Cyclin D1 it was 0.74 nM.

On to `COC(C)(C)CNS(=O)(=O)N1CCC(Nc2ncc3cc(C)c(=O)n([C@H]4CCC[C@]4(C)O)c3n2)CC1` (single isomer, unassigned) [Example 99, (+)-4-({8-[(1R*,2R*)-2-hydroxy-2-methylcyclopentyl]-6-methyl-7-oxo-7,8-dihydropyrido[2,3-d]pyrimidin-2-yl}amino)-N-(2-methoxy-2-methylpropyl)piperidine-1-sulfonamide], for which the Ki at CDK2/Cyclin E1 turned out to be 2.88 nM; at CDK6/Cyclin D1, 14.3 nM.

`Cc1cc2cnc(NC3CCN(S(=O)(=O)NCC(C)(F)F)CC3)nc2n([C@@H]2CCC[C@@]2(C)O)c1=O` (single isomer, unassigned) [Example 104, (−)-N-(2,2-difluoropropyl)-4-({8-[(1R*,2R*)-2-hydroxy-2-methylcyclopentyl]-6-methyl-7-oxo-7,8-dihydropyrido[2,3-d]pyrimidin-2-yl}amino)piperidine-1-sulfonamide]: the Ki on CDK2/Cyclin E1 was determined as 0.14 nM; on CDK6/Cyclin D1, 0.77 nM.

Regarding `Cc1cc2cnc(NC3CCN(S(=O)(=O)NCC(C)(F)F)CC3)nc2n([C@H]2CCC[C@]2(C)O)c1=O` (single isomer, unassigned) [Example 105, (+)-N-(2,2-difluoropropyl)-4-({8-[(1R*,2R*)-2-hydroxy-2-methylcyclopentyl]-6-methyl-7-oxo-7,8-dihydropyrido[2,3-d]pyrimidin-2-yl}amino)piperidine-1-sulfonamide], the Ki at CDK2/Cyclin E1 was determined as 3.35 nM; at CDK6/Cyclin D1, 22.7 nM.

Consider `CCS(=O)(=O)N1CCC(Nc2ncc3cc(C)c(=O)n([C@@H]4CCC[C@@]4(C)O)c3n2)CC1` (single isomer, unassigned) [Example 110, (−)-2-{[1-(ethylsulfonyl)piperidin-4-yl]amino}-8-[(1R*,2R*)-2-hydroxy-2-methylcyclopentyl]-6-methylpyrido[2,3-d]pyrimidin-7(8H)-one], for which the figures for the Ki at CDK2/Cyclin E1 and on CDK6/Cyclin D1 were 0.1 nM and 0.28 nM, respectively.

For the origin of these results see patent US10233188B2, “CDK2/4/6 inhibitors” (priority 2016, dated 2019).
